This is an account of results in US20250382273A1 (INSTITUT NATIONAL DE LA SANTE ET DE LA RECHERCHE MEDICALE, priority 2022, published 2025).

The first experiment relates to M. tuberculosis H37Rv_DdnL49P_gfp. The format is cell-based, Mycobacterium tuberculosis. As to conditions: in combination with pretomanid, unit inferred; read-out: average EC50 H37Rv_DdnL49P_gfp.
As usually defined, the EC50 is the concentration needed to bring the measured effect to its halfway point. As for `CCOc1ccc2nc(NC(=O)[C@@H]3C4C=CC(C4)[C@@H]3C(=O)O)sc2c1` (stereo partly shown) [Example 7, 3-[(6-ethoxy-1,3-benzothiazol-2-yl)carbamoyl]bicyclo[2.2.1]hept-5-ene-2-carboxylic acid], the EC50 is 1000 nM.
The same measure, in the same setting: under `O=C(Nc1nc2ccc(Oc3ccc(F)cc3)cc2s1)[C@@H]1C2C=CC(C2)[C@@H]1C(=O)O` (stereo partly shown) [Example 21, 3-[[6-(4-fluorophenoxy)-1,3-benzothiazol-2-yl]carbamoyl]bicyclo[2.2.1]hept-5-ene-2-carboxylic acid] stands 400 nM.
The same measure, in the same setting: under `O=C(Nc1nc2ccc(Oc3cc(C(F)(F)F)ccn3)cc2s1)[C@@H]1C2C=CC(C2)[C@@H]1C(=O)O` (stereo partly shown) [Example 27, 3-[[6-[[4-(trifluoromethyl)-2-pyridyl]oxy]-1,3-benzothiazol-2-yl]carbamoyl]bicyclo[2.2.1]hept-5-ene-2-carboxylic acid] stands 230 nM.
The same measure, in the same setting: under `O=C(Nc1nc2ccc(Oc3ccnc(C(F)(F)F)c3)cc2s1)[C@@H]1C2C=CC(C2)[C@@H]1C(=O)O` (stereo partly shown) [Example 32, 3-[[6-[[2-(trifluoromethyl)-4-pyridyl]oxy]-1,3-benzothiazol-2-yl]carbamoyl]bicyclo[2.2.1]hept-5-ene-2-carboxylic acid] stands 320 nM.
In the case of `O=C1[C@@H]2[C@H](C(=O)N1c1nc3ccc(Oc4ccc(C(F)(F)F)cn4)cc3s1)[C@@H]1C=C[C@H]2C1` [Example 36, (1R,2S,6R,7S)-4-[6-[[5-(trifluoromethyl)-2-pyridyl]oxy]-1,3-benzothiazol-2-yl]-4-azatricyclo[5.2.1.02,6]dec-8-ene-3,5-dione], the concentration giving a half-maximal response (EC50) is 490 nM.

The same experiment, now with this note: read-out: EC50 H37Rv_DdnL49P_gfp.
`Cc1ccc2nc(NC(=O)[C@@H]3C4C=CC(C4)[C@@H]3C(=O)O)sc2c1` (mixture of isomers) [Example 1, 3-[(6-methyl-1,3-benzothiazol-2-yl)carbamoyl]bicyclo[2.2.1]hept-5-ene-2-carboxylic acid]: the EC50 is 5000 to 10000 nM.
The same measure, in the same setting: then `Cc1ccc2nc(NC(=O)[C@@H]3C4CCC(C4)[C@@H]3C(=O)O)sc2c1` (stereo in doubt) [Example 3, 3-[(6-methyl-1,3-benzothiazol-2-yl)carbamoyl]norbornane-2-carboxylic acid], with 1000 to 5000 nM; and `Cc1ccc2nc(N3C(=O)[C@@H]4[C@H](C3=O)[C@@H]3C=C[C@H]4C3)sc2c1` [Example 2, (1R,2S,6R,7S)-4-(6-methyl-1,3-benzothiazol-2-yl)-4-azatricyclo[5.2.1.02,6]dec-8-ene-3,5-dione], with 5000 to 10000 nM.
Consider `CCOc1ccc2nc(NC(=O)[C@@H]3C4C=CC(C4)[C@@H]3C(=O)O)sc2c1` (stereo partly shown) [Example 7, 3-[(6-ethoxy-1,3-benzothiazol-2-yl)carbamoyl]bicyclo[2.2.1]hept-5-ene-2-carboxylic acid], for which the EC50 was less than 1000 nM.
Same read-out and setting: then `CCOc1ccc2nc(N3C(=O)[C@@H]4[C@H](C3=O)[C@@H]3C=C[C@H]4C3)sc2c1` [Example 8, (1R,2S,6R,7S)-4-(6-ethoxy-1,3-benzothiazol-2-yl)-4-azatricyclo[5.2.1.02,6]dec-8-ene-3,5-dione], with 1000 to 5000 nM.
The same measure, in the same setting: under `COc1cc2nc(NC(=O)[C@@H]3C4C=CC(C4)[C@@H]3C(=O)O)sc2cc1OC` (stereo partly shown) [Example 9, 3-[(5,6-dimethoxy-1,3-benzothiazol-2-yl)carbamoyl]bicyclo[2.2.1]hept-5-ene-2-carboxylic acid] stands 5000 to 10000 nM; under `O=C(Nc1nc2cc3c(cc2s1)OCCO3)[C@@H]1C2C=CC(C2)[C@@H]1C(=O)O` (stereo partly shown) [Example 10, 3-(6,7-dihydro-[1,4]dioxino[2,3-f][1,3]benzothiazol-2-ylcarbamoyl) bicyclo[2.2.1]hept-5-ene-2-carboxylic acid], 10000 to 20000 nM.
On the same count and under the same terms, under `CCc1ccc2nc(NC(=O)[C@@H]3C4C=CC(C4)[C@@H]3C(=O)O)sc2c1` (stereo partly shown) [Example 11, 3-[(6-ethyl-1,3-benzothiazol-2-yl)carbamoyl]bicyclo[2.2.1]hept-5-ene-2-carboxylic acid] stands 1000 to 5000 nM; under `CC(C)(C)c1ccc2nc(NC(=O)[C@@H]3C4C=CC(C4)[C@@H]3C(=O)O)sc2c1` (stereo partly shown) [Example 12, 3-[(6-tert-butyl-1,3-benzothiazol-2-yl)carbamoyl]bicyclo[2.2.1]hept-5-ene-2-carboxylic acid], less than 1000 nM; under `Cc1cc(C)c2nc(NC(=O)[C@@H]3C4C=CC(C4)[C@@H]3C(=O)O)sc2c1` (stereo partly shown) [Example 13, 3-[(4,6-dimethyl-1,3-benzothiazol-2-yl)carbamoyl]bicyclo[2.2.1]hept-5-ene-2-carboxylic acid], 1000 to 5000 nM.
Take `Cc1ccc2sc(NC(=O)[C@@H]3C4C=CC(C4)[C@@H]3C(=O)O)nc2c1C` (stereo partly shown) [Example 15, 3-[(4,5-dimethyl-1,3-benzothiazol-2-yl)carbamoyl]bicyclo[2.2.1]hept-5-ene-2-carboxylic acid]: the EC50 lay in the range of 1000 to 5000 nM.
The same measure, in the same setting: under `Cc1cccc2sc(NC(=O)[C@@H]3C4C=CC(C4)[C@@H]3C(=O)O)nc12` (stereo partly shown) [Example 16, 3-[(4-methyl-1,3-benzothiazol-2-yl)carbamoyl]bicyclo[2.2.1]hept-5-ene-2-carboxylic acid] stands 1000 to 5000 nM; under `O=C(Nc1nc2ccc(Oc3ccccc3)cc2s1)[C@@H]1C2C=CC(C2)[C@@H]1C(=O)O` (stereo partly shown) [Example 17, 3-[(6-phenoxy-1,3-benzothiazol-2-yl)carbamoyl]bicyclo[2.2.1]hept-5-ene-2-carboxylic acid], less than 1000 nM; under `O=C(Nc1nc2ccc(Oc3ccccc3)cc2s1)[C@@H]1C2C=CC(C2)[C@@H]1C(=O)O` (stereo partly drawn) [Example 18, [2-hydroxy-1,1-bis(hydroxymethyl)ethyl]ammonium: (1R,2S,3R,4S)-3-[(6-phenoxy-1,3-benzothiazol-2-yl)carbamoyl]bicyclo[2.2.1]hept-5-ene-2-carboxylate], less than 1000 nM.
Turning to `O=C1[C@@H]2[C@H](C(=O)N1c1nc3ccc(Oc4ccccc4)cc3s1)[C@@H]1C=C[C@H]2C1` [Example 19, (1R,2S,6R,7S)-4-(6-phenoxy-1,3-benzothiazol-2-yl)-4-azatricyclo[5.2.1.02,6]dec-8-ene-3,5-dione], the EC50 was in the range of 1000 to 5000 nM.
Same read-out and setting: then `O=C(Nc1nc2ccc(Cc3ccccc3)cc2s1)[C@@H]1C2C=CC(C2)[C@@H]1C(=O)O` (stereo partly shown) [Example 20, 3-[(6-benzyl-1,3-benzothiazol-2-yl)carbamoyl]bicyclo[2.2.1]hept-5-ene-2-carboxylic acid], with less than 1000 nM.
On the same count and under the same terms, then `O=C(Nc1nc2ccc(Oc3ccc(F)cc3)cc2s1)[C@@H]1C2C=CC(C2)[C@@H]1C(=O)O` (stereo partly shown) [Example 21, 3-[[6-(4-fluorophenoxy)-1,3-benzothiazol-2-yl]carbamoyl]bicyclo[2.2.1]hept-5-ene-2-carboxylic acid], with less than 1000 nM; and `O=C(Nc1nc2ccc(Oc3ccc(C(F)(F)F)cc3)cc2s1)[C@@H]1C2C=CC(C2)[C@@H]1C(=O)O` (stereo partly shown) [Example 22, 3-[[6-[4-(trifluoromethyl)phenoxy]-1,3-benzothiazol-2-yl]carbamoyl]bicyclo[2.2.1]hept-5-ene-2-carboxylic acid], with 1000 to 5000 nM; and `O=C1[C@@H]2[C@H](C(=O)N1c1nc3ccc(Oc4ccc(C(F)(F)F)cc4)cc3s1)[C@@H]1C=C[C@H]2C1` [Example 23, (1R,2S,6R,7S)-4-[6-[4-(trifluoromethyl)phenoxy]-1,3-benzothiazol-2-yl]-4-azatricyclo[5.2.1.02,6]dec-8-ene-3,5-dione], with 1000 to 5000 nM.
On the same count and under the same terms, then `O=C(Nc1nc2ccc(Oc3ccncc3)cc2s1)[C@@H]1C2C=CC(C2)[C@@H]1C(=O)O` (stereo partly shown) [Example 24, 3-[[6-(4-pyridyloxy)-1,3-benzothiazol-2-yl]carbamoyl]bicyclo[2.2.1]hept-5-ene-2-carboxylic acid], with 5000 to 10000 nM; and `O=C(Nc1nc2ccc(Oc3ncccc3C(F)(F)F)cc2s1)[C@@H]1C2C=CC(C2)[C@@H]1C(=O)O` (stereo partly shown) [Example 25, 3-[[6-[[3-(trifluoromethyl)-2-pyridyl]oxy]-1,3-benzothiazol-2-yl]carbamoyl]bicyclo[2.2.1]hept-5-ene-2-carboxylic acid], with 1000 to 5000 nM.
With `O=C1[C@@H]2[C@H](C(=O)N1c1nc3ccc(Oc4ncccc4C(F)(F)F)cc3s1)[C@@H]1C=C[C@H]2C1` [Example 26, (1R,2S,6R,7S)-4-[6-[[3-(trifluoromethyl)-2-pyridyl]oxy]-1,3-benzothiazol-2-yl]-4-azatricyclo[5.2.1.02,6]dec-8-ene-3,5-dione], the EC50 is 1000 to 5000 nM.
As to `O=C(Nc1nc2ccc(Oc3cc(C(F)(F)F)ccn3)cc2s1)[C@@H]1C2C=CC(C2)[C@@H]1C(=O)O` (stereo partly shown) [Example 27, 3-[[6-[[4-(trifluoromethyl)-2-pyridyl]oxy]-1,3-benzothiazol-2-yl]carbamoyl]bicyclo[2.2.1]hept-5-ene-2-carboxylic acid], the half-maximal effective concentration (EC50) was less than 1000 nM.
Still for that read-out and setting: then `O=C1[C@@H]2[C@H](C(=O)N1c1nc3ccc(Oc4cc(C(F)(F)F)ccn4)cc3s1)[C@@H]1C=C[C@H]2C1` [Example 28, (1R,2S,6R,7S)-4-[6-[[4-(trifluoromethyl)-2-pyridyl]oxy]-1,3-benzothiazol-2-yl]-4-azatricyclo[5.2.1.02,6]dec-8-ene-3,5-dione], with less than 1000 nM.
Still for that read-out and setting: under `Cc1ccnc(Oc2ccc3nc(NC(=O)[C@@H]4C5C=CC(C5)[C@@H]4C(=O)O)sc3c2)c1` (stereo partly shown) [Example 29, 3-[[6-[(4-methyl-2-pyridyl)oxy]-1,3-benzothiazol-2-yl]carbamoyl]bicyclo[2.2.1]hept-5-ene-2-carboxylic acid] stands less than 1000 nM.
Take `Cc1ccnc(Oc2ccc3nc(N4C(=O)[C@@H]5C6C=CC(C6)[C@@H]5C4=O)sc3c2)c1` [Example 30]: the concentration for a half-maximal effect (EC50) was less than 1000 nM.
Same read-out and setting: then `N#Cc1ccnc(Oc2ccc3nc(N4C(=O)[C@@H]5[C@H](C4=O)[C@@H]4C=C[C@H]5C4)sc3c2)c1` [Example 31, 2-[[2-[(1R,2S,6R,7S)-3,5-dioxo-4-azatricyclo[5.2.1.02,6]dec-8-en-4-yl]-1,3-benzothiazol-6-yl]oxy]pyridine-4-carbonitrile], with 5000 to 10000 nM; and `O=C(Nc1nc2ccc(Oc3ccnc(C(F)(F)F)c3)cc2s1)[C@@H]1C2C=CC(C2)[C@@H]1C(=O)O` (stereo partly shown) [Example 32, 3-[[6-[[2-(trifluoromethyl)-4-pyridyl]oxy]-1,3-benzothiazol-2-yl]carbamoyl]bicyclo[2.2.1]hept-5-ene-2-carboxylic acid], with less than 1000 nM.
With `O=C1[C@@H]2[C@H](C(=O)N1c1nc3ccc(Oc4cccc(C(F)(F)F)n4)cc3s1)[C@@H]1C=C[C@H]2C1` [Example 34, (1R,2S,6R,7S)-4-[6-[[6-(trifluoromethyl)-2-pyridyl]oxy]-1,3-benzothiazol-2-yl]-4-azatricyclo[5.2.1.02,6]dec-8-ene-3,5-dione], the EC50 was in the range of 1000 to 5000 nM.
Still for that read-out and setting: under `O=C(Nc1nc2ccc(Oc3ccc(C(F)(F)F)cn3)cc2s1)[C@@H]1C2C=CC(C2)[C@@H]1C(=O)O` (stereo partly shown) [Example 35, 3-[[6-[[5-(trifluoromethyl)-2-pyridyl]oxy]-1,3-benzothiazol-2-yl]carbamoyl]bicyclo[2.2.1]hept-5-ene-2-carboxylic acid] stands 1000 to 5000 nM; under `O=C1[C@@H]2[C@H](C(=O)N1c1nc3ccc(Oc4ccc(C(F)(F)F)cn4)cc3s1)[C@@H]1C=C[C@H]2C1` [Example 36, (1R,2S,6R,7S)-4-[6-[[5-(trifluoromethyl)-2-pyridyl]oxy]-1,3-benzothiazol-2-yl]-4-azatricyclo[5.2.1.02,6]dec-8-ene-3,5-dione], less than 1000 nM.
Turning to `O=C(Nc1nc2ccc(Oc3ccc(Br)cn3)cc2s1)[C@@H]1C2C=CC(C2)[C@@H]1C(=O)O` (stereo partly shown) [Example 37, 3-[[6-[(5-bromo-2-pyridyl)oxy]-1,3-benzothiazol-2-yl]carbamoyl]bicyclo [2.2.1]hept-5-ene-2-carboxylic acid], the EC50 was 1000 to 5000 nM.
